Reference: patent US20150140002A1, “USE OF A PCSK9 INHIBITOR TO TREAT […]” (Sanofi, priority 2013, published 2015)

How the values were obtained:
[1] = tested on: patient population with non-familial hypercholesterolemia or with heterozygous familial hypercholesterolemia; experiment: Phase 2 studies / earlier clinical data of mAb316P; type: in vivo, human
Text: The efficacy on LDL-C lowering was associated with consistent results in total-C, ApoB, non-HDL-C and ApoB/ApoA-1 ratio and a positive trend for HDL-C, TG and Lp(a).

anti-mAb316P antibodies = experiment: Example 2: anti-mAb316P antibody (ADA) bridging immunoassay and neutralizing antibody assay; type: in vivo, human
Experimental: Other endpoints Anti-MAb316P Antibody Assessments: Anti-mAb316P antibodies included the antibody status (positive/negative) and antibody titers.
Sampling time: Serum samples for anti-mAb316P antibody determination were drawn periodically throughout the study. The first scheduled sample at randomization visit was obtained before IMP injection (predose).
Anti-mAb316P antibody samples were analyzed using a validated non-quantitative, titer-based bridging immunoassay. It involved an initial screen, a confirmation assay based on drug specificity, and a measurement of the titer of anti-MAb316P antibodies in the sample. The lower limit of detection was approximately 1.5 ng/mL.
Samples that were positive in the ADA assay were assessed for neutralizing antibodies using a validated, non-quantitative, competitive ligand binding assay. The lower limit of detection based on a monoclonal positive control neutralizing antibody is 390 ng/mL.

[2] = Example 2: serum mAb316P concentration (ELISA); type: in vivo, human
Experimental: If needed, total and free PCSK9 concentrations could be measured from the same PK sample.
To collect information on the absorption phase, an optional PK sample was collected at 5 days (±2) after the week 22 IMP injection or at 5 days (±2) after any subsequent IMP injection while the subject was on treatment.
The lower limit of quantification (LLQ) for this assay is 0.078 μg/mL.

[3] = tested on: patients with primary hypercholesterolemia (heFH and non-FH) who are intolerant to statins; experiment: Example 3: randomized double-blind trial mAb316P versus ezetimibe (atorvastatin calibrator arm), lipid parameters; type: in vivo, human
Text: The present study was a randomized, double-blind, double-dummy, active-controlled, parallel-group, multi-national, multi-center study in patients with primary hypercholesterolemia and moderate, high, or very high CV risk who are intolerant to statins. The study design is illustrated in FIG. 7.
Primary Efficacy Endpoint: The primary efficacy endpoint was the percent change in calculated LDL-C from baseline to week 24, which was defined as: 100× (calculated LDL-C value at week 24—calculated LDL-C value at baseline)/calculated LDL-C value at baseline. A baseline LDL-C value was needed for each patient as the baseline calculated LDL-C value was the last LDL-C level obtained before the first double-blind study drug injection.
Total-C, HDL-C, TG, ApoB, ApoA-1, and Lp(a) were directly measured by a central laboratory as per a predetermined schedule. Low-density lipoprotein cholesterol was calculated using the Friedewald formula at all visits (except week −15 and the follow-up visit). If TG values exceeded 400 mg/dL (4.52 mmol/L), then the central lab measured (via the beta quantification method) the LDL-C rather than calculate it. Non-HDL-C was calculated by subtracting HDL-C from the total-C. Ratio ApoB/ApoA-1 was calculated.
The double-blind period efficacy endpoint analysis results in the order of statistical hierarchical testing as specified in the above protocol (with multiple testing controlled at the 0.05 significance level) is set forth in Table 12. Primary and key secondary efficacy analyses were performed comparing mAb316P-treated patients to ezetimibe-treated patients. For clarification, the ITT analysis is defined for patients in the ITT population and includes all endpoint assessments in an analysis window, regardless of study treatment dosing status (i.e. includes post-treatment assessments). The on-treatment analysis is defined for patients in the mITT population and includes all endpoint assessments from the first double-blind study drug (capsule or injection, whichever comes first) up to 21 days after the last double-blind study drug injection, or 3 days after the last capsule intake, whichever came first (i.e. includes assessments in the efficacy treatment period). Note: A result is statistically significant if the p-value is s 0.05, in the order of the hierarchical testing.

[4] = tested on: patients with hypercholesterolemia at moderate cardiovascular (CV) risk; conditions: in vivo
Text: The clinical laboratory data consisted of urinalysis and blood analysis, hematology (RBC count, red blood cell distribution width (RDW), reticulocyte count, hemoglobin, hematocrit, platelets, WBC count with differential blood count), standard chemistry (glucose, sodium, potassium, chloride, bicarbonate, calcium, phosphorous, urea nitrogen, creatinine, uric acid, total protein, LDH, albumin, γ Glutamyl Transferase [γGT]), Hepatitis C antibody, liver panel (ALT, AST, ALP, and total bilirubin), and CPK.
Safety endpoints—Vital signs measurement: Vital signs included: HR, systolic and diastolic BP in sitting position.
The safety analysis included all randomized and treated patients. Safety data were analyzed by descriptive statistics.

[5] = tested on: patients with primary hypercholesterolemia (heFH and non-FH) who are intolerant to statins; conditions: in vivo
[6] = tested on: patients with primary hypercholesterolemia (heFH and non-FH) who are intolerant to statins; experiment: Example 3: safety (TEAEs, skeletal muscle-related events); conditions: in vivo
[7] = clinical data available at commencement of Example 3 study

mAb316P: human anti-PCSK9 antibody; heavy chain SEQ ID NO:5, light chain SEQ ID NO:9; HCVR SEQ ID NO:1, LCVR SEQ ID NO:6
LDL-C lowering effect [1, 7]: significant LDL-C lowering effect | tolerability [1, 7]: generally well-tolerated | serum total concentrations of mAb316P during the 8-week follow-up period ([1]; preliminary PK data from Phase 2 studies): still detectable, but at very low levels | anti-drug antibody titers (anti-mAb316P antibodies; all anti-drug antibody-positive patients): ≤ 240 | neutralizing anti-drug antibody (anti-mAb316P antibodies; in vivo): no neutralizing anti-drug antibody | patients with treatment emergent anti-drug antibodies (anti-mAb316P antibodies; in vivo): 6 (12%) patients (%) | serum MAb316P Ctrough, mean (SD) ([2]; Week 4, non-uptitrated (n = 32)): 5784.7 (2456.4) ng/mL | serum MAb316P Ctrough, mean (SD) ([2]; Week 4, uptitrated at Week 12 (n = 14)): 4533.9 (3996.5) ng/mL | serum MAb316P Ctrough, mean (SD) ([2]; Week 12, non-uptitrated (n = 32)): 5979.0 (2780.3) ng/mL | serum MAb316P Ctrough, mean (SD) ([2]; Week 12, uptitrated at Week 12 (n = 14)): 5702.9 (4816.4) ng/mL | serum MAb316P Ctrough, mean (SD) ([2]; Week 24, non-uptitrated, 75 mg Q2W (n = 32)): 6991.4 (4418.4) ng/mL | serum MAb316P Ctrough, mean (SD) ([2]; Week 24, uptitrated to 150 mg Q2W at Week 12 (n = 14)): 14772.2 (10201.7) ng/mL | change of serum mAb316P levels after uptitration ([2]; patients uptitrated at Week 12 (75 to 150 mg Q2W)): approximately doubled | Apo A-1 Diff mAb316P vs ezetimibe ([3]; WK12, ITT analysis): Diff: 1.6% | Apo A-1 LS mean percent change from baseline ([3]; WK12, ITT analysis): LS mean: 5.5% | Apo B Diff mAb316P vs ezetimibe ([3]; WK12, ITT analysis): Diff: −24.5% | Apo B LS mean percent change from baseline ([3]; WK12, ITT analysis): LS mean: −36.1% | Fasting Triglycerides Diff mAb316P vs ezetimibe ([3]; WK12, ITT analysis): Diff: 1.3% | Fasting Triglycerides LS mean percent change from baseline ([3]; WK12, ITT analysis): LS mean: −8.1% | HDL-C Diff mAb316P vs ezetimibe ([3]; WK12, ITT analysis): Diff: 1.4% | HDL-C LS mean percent change from baseline ([3]; WK12, ITT analysis): LS mean: 9.0% | LDL-C Diff mAb316P vs ezetimibe ([3]; WK12, ITT analysis): Diff: −31.5% | LDL-C LS mean percent change from baseline ([3]; WK12, ITT analysis): LS mean: −47.0% | Lp(a) Diff mAb316P vs ezetimibe ([3]; WK12, ITT analysis): Diff: −17.2% | Lp(a) LS mean percent change from baseline ([3]; WK12, ITT analysis): LS mean: −21.7% | Non-HDL-C Diff mAb316P vs ezetimibe ([3]; WK12, ITT analysis): Diff: −25.7% | Non-HDL-C LS mean percent change from baseline ([3]; WK12, ITT analysis): LS mean: −25.7% | Total Cholesterol Diff mAb316P vs ezetimibe ([3]; WK12, ITT analysis): Diff: −21.1% | Total Cholesterol LS mean percent change from baseline ([3]; WK12, ITT analysis): LS mean: −32.7% | LDL-C Diff mAb316P vs ezetimibe ([3]; WK12, on-treatment analysis): Diff: −33.1% | LDL-C LS mean percent change from baseline ([3]; WK12, on-treatment analysis): LS mean: −51.2% | Apo A-1 Diff mAb316P vs ezetimibe ([3]; WK24, ITT analysis): Diff: 1.9% | Apo A-1 LS mean percent change from baseline ([3]; WK24, ITT analysis): LS mean: 4.8% | Fasting Triglycerides Diff mAb316P vs ezetimibe ([3]; WK24, ITT analysis): Diff: −5.6% | Fasting Triglycerides LS mean percent change from baseline ([3]; WK24, ITT analysis): LS mean: −9.2% | HDL-C Diff mAb316P vs ezetimibe ([3]; WK24, ITT analysis): Diff: 0.9% | HDL-C LS mean percent change from baseline ([3]; WK24, ITT analysis): LS mean: 7.7% | Proportion with LDL-C <70 mg/dL ([3]; WK24, ITT analysis): Proportion = 32.5% | Proportion with Very High CV LDL-C <70 mg/dL OR Moderate/High CV LDL-C <100 mg/dL ([3]; WK24, ITT analysis): Proportion = 41.3% | Total Cholesterol Diff mAb316P vs ezetimibe ([3]; WK24, ITT analysis): Diff: −20.8% | Total Cholesterol LS mean percent change from baseline ([3]; WK24, ITT analysis): LS mean: −31.8% | Apo B Diff mAb316P vs ezetimibe ([3]; WK24, on-treatment analysis): Diff: −28.2% | Apo B LS mean percent change from baseline ([3]; WK24, on-treatment analysis): LS mean: −42.6% | LDL-C Diff mAb316P vs ezetimibe ([3]; WK24, on-treatment analysis): Diff: −35.1% | LDL-C LS mean percent change from baseline ([3]; WK24, on-treatment analysis): LS mean: −52.2% | Non-HDL-C Diff mAb316P vs ezetimibe ([3]; WK24, on-treatment analysis): Diff: −29.8% | Non-HDL-C LS mean percent change from baseline ([3]; WK24, on-treatment analysis): LS mean: −46.9% | Proportion with LDL-C <70 mg/dL ([3]; WK24, on-treatment analysis): Proportion = 39.0% | Proportion with Very High CV LDL-C <70 mg/dL OR Moderate/High CV LDL-C <100 mg/dL ([3]; WK24, on-treatment analysis): Proportion = 50.4% | patients who reached LDL-C goal at week 24 ([3]; goal <70 mg/dL very high risk, <100 mg/dL moderate and high risk): 41.9% | LS mean LDL-C value at week 24 ([3]; in vivo): 108.5 mg/dL | change in LDL-C level from baseline ([3]; week 24): -84 mg/dL | TEAE class infection [4]: 42.3% | Cardiac disorders (SOC) [5]: 10 (7.9%) patients (%) | Ear and labyrinth disorders (SOC) [5]: 8 (6.3%) patients (%) | General allergic TEAEs (MedDRA SMQ Hypersensitivity) [5]: 12 (9.5%) patients (%) | Investigations (SOC) [5]: 9 (7.1%) patients (%) | Psychiatric disorders (SOC) [5]: 9 (7.1%) patients (%) | Skeletal muscle-related TEAEs (CMQ preferred term) [5]: 34 (27.0%) patients (%) | TEAEs [5]: 104 (82.5%) patients (%) | Treatment-emergent SAEs [5]: 12 (9.5%) patients (%) | Treatment-emergent injection site reactions (ISRs) [5]: 6 (4.8%) patients (%) | Treatment-emergent neurocognitive disorders [5]: 3 (2.4%) patients (%) | Treatment-emergent neurologic AEs [5]: 11 (8.7%) patients (%) | Treatment-emergent skeletal muscle-related events resulting in early treatment discontinuation [5]: 19 (15.1%) patients (%) | back pain [5]: 4.0% | early termination due to musculoskeletal and connective tissues disorders SOC events [5]: 20 [15.9%] patients [%] | fatigue [5]: 4.8% | headache [5]: 4.8% | insomnia [5]: 5 (4.0%) reports (%) | muscle spasms [5]: 4.0% | muscular weakness [5]: 0.8% | palpitations [5]: 4 (3.2%) reports (%) | paraesthesia [5]: 3.2% | patients who prematurely discontinued study treatment due to a TEAE [5]: 23 (18.3%) patients (%) | patients who prematurely terminated study treatment due to adverse events [5]: 23 (18.3%) patients (%) | rate of AEs [5]: 82.5% | vertigo [5]: 6 (4.8%) reports (%) | safety and tolerability ([5]; sc): generally safe and well tolerated | patients positively adjudicated for non-fatal MI [6]: one (0.8%) patient (%)
